Measured values from PubChem BioAssay AID1963977 (Molecular Pharmacology Branch, DTP, NCI, 2024).

Test system: 624824-186-R-J3-PDC multicell spheroids, viability
Assay: Anticancer human tumor 624824-186-R-J3-PDC patient-derived colon adenocarcinoma cell line growth inhibition [PI3K]
Details: for IC50: curve of first compound; for viability, T/C: stronger effect = lower value; active = viability on the fitted dose curve at most 10% of control; inactive = the rest
From the text: Combinatorial screen of targeted agents with the PI3K inhibitors inavolisib, alpelisib, duvelisib, and copanlisib in multi-cell type tumor spheroids
A high-throughput screen of multi-cell type tumor spheroids was designed to identify active combinations of targeted small molecules and PI3K pathway inhibitors. Complex spheroids include a stromal component modeled by human endothelial cells (HUVEC) and fibroblasts modeled by human mesenchymal stem cells (MSCs). The concentration ranges selected for each drug and investigational agent were based upon clinically achievable concentrations if the clinical Cmax of the agent was known.
Compounds. The drugs and investigational agents: inavolisib (NSC800729), alpelisib (NSC765974), duvelisib (NSC772469), copanlisib (NSC816437), ipatasertib (NSC767898), afuresertib (NSC778305), talazoparib (NSC767125), sapanisertib (NSC764658), selumetinib (NSC741078), tovorafenib (DAY101, NSC766906), vemurafenib (NSC761431), ravoxertinib (NSC781343), sotorasib (NSC818433), MRTX1133 (NSC 836407), abemaciclib (NSC 768073), palbociclib (NSC758247), venetoclax (NSC 766270), SY5609 (NSC837396), enzalutamide (NSC755605), and darolutamide (NSC825331), were obtained from the National Cancer Institute (NCI) Developmental Therapeutics Program Chemical Repository. The FDA-approved anticancer drug set is available from the NCI Developmental Therapeutics Program. […] The stock solutions were prepared in dimethyl sulfoxide (DMSO, Sigma-Aldrich, St. Louis, MO, cat. D2650) at 800-fold the tested concentration and stored at -70 degrees C prior to their use. All drugs and investigational agents were tested over a range starting from a high concentration at or near the clinical Cmax and decreasing in half-log increments. If the clinical Cmax for an agent had not been determined, the highest concentration tested was 10 microM.
Cell Culture. All cells were maintained in an incubator at 37 degrees C and 5% CO2 with 95% humidity. The PDC lines were cultured according to standard operating procedures established by the NCI PDMR (https://pdmr.cancer.gov/sops/default.htm). All PDCs were thawed and cultured in Matrigel-coated flasks prepared with a working solution of 1X Ham's F-12 nutrient mix, without supplementation (Invitrogen, Waltham, MA, cat. 11765054), 100 U/mL penicillin-streptomycin (Invitrogen, cat. 15140122), and 2.5% Matrigel (Corning Inc., Corning, NY, cat. 354248) for the first three passages. The 354836-022-R-J1-PDC, 475296-252-R-J1-PDC, and 997726-040-R-J2-PDC lines were cultured in 6A media, which includes advanced DMEM/F-12 (Thermo Fisher Scientific, cat. 12634028), 10 mM HEPES (Thermo Fisher Scientific, cat. 15630080), 1X GlutaMAX supplement (Thermo Fisher Scientific, cat. 35050061), 0.1 mg/mL primocin (InvivoGen, San Diego, CA, cat. ant-pm-2), 10% defined fetal bovine serum, heat inactivated (HyClone Laboratories Inc., Logan, UT, cat. SH30070.03HI), 50% L-WRN conditioned media (ATCC, cat. CRL-3276), 1.25 mM N-Acetyl-L-cysteine (Sigma-Aldrich, cat. A9165), 10 mM nicotinamide (Sigma-Aldrich, cat. N0636), 1X B-27 supplement (Thermo Fisher Scientific, cat. 17504044), 1X N-2 supplement (Thermo Fisher Scientific, cat. 17502048), and 10 microM Y-27632 dihydrochloride (Tocris Bioscience, Bristol, United Kingdom, cat. 1254). The 624824-186-R-J2-PDC line was cultured in 6C/Colon 1B media, which includes all 6A media components plus 50 ng/mL human EGF recombinant protein (Thermo Fisher Scientific, cat. PHG0311). […]

[1] = second compound 0.0316 µM, first compound 0.0316 µM
[2] = second compound 0.0316 µM, first compound 0.1 µM
[3] = second compound 0.0316 µM, first compound 0.316 µM
[4] = second compound 0.0316 µM, first compound 1 µM
[5] = second compound 0.0316 µM, first compound 3.16 µM
[6] = second compound 0.0316 µM, first compound 10 µM
[7] = second compound 0.1 µM, first compound 0.0316 µM
[8] = second compound 0.1 µM, first compound 0.1 µM
[9] = second compound 0.1 µM, first compound 0.316 µM
[10] = second compound 0.1 µM, first compound 1 µM
[11] = second compound 0.1 µM, first compound 3.16 µM
[12] = second compound 0.1 µM, first compound 10 µM
[13] = second compound 0.316 µM, first compound 0.0316 µM
[14] = second compound 0.316 µM, first compound 0.1 µM
[15] = second compound 0.316 µM, first compound 0.316 µM
[16] = second compound 0.316 µM, first compound 1 µM
[17] = second compound 0.316 µM, first compound 3.16 µM
[18] = second compound 0.316 µM, first compound 10 µM
[19] = second compound 1 µM, first compound 0.0316 µM
[20] = second compound 1 µM, first compound 0.1 µM
[21] = second compound 1 µM, first compound 0.316 µM
[22] = second compound 1 µM, first compound 1 µM
[23] = second compound 1 µM, first compound 3.16 µM
[24] = second compound 1 µM, first compound 10 µM
[25] = second compound 3.16 µM, first compound 0.0316 µM
[26] = second compound 3.16 µM, first compound 0.1 µM
[27] = second compound 3.16 µM, first compound 0.316 µM
[28] = second compound 3.16 µM, first compound 1 µM
[29] = second compound 3.16 µM, first compound 3.16 µM
[30] = second compound 3.16 µM, first compound 10 µM
[31] = second compound 10 µM, first compound 0.0316 µM
[32] = second compound 10 µM, first compound 0.1 µM
[33] = second compound 10 µM, first compound 0.316 µM
[34] = second compound 10 µM, first compound 1 µM
[35] = second compound 10 µM, first compound 3.16 µM
[36] = second compound 10 µM, first compound 10 µM
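Note: spheroids exposed to agents for seven days before luminescence read.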
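Throughout, for viability, T/C: luminescent signal used as a stand-in for spheroid viability; percent viability relative to DMSO vehicle control wells taken as 100%.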

C#Cc1c(F)ccc2cc(O)cc(-c3ncc4c(N5CC6CCC(C5)N6)nc(OCC56CCCN5CC(F)C6)nc4c3F)c12 (stereo unspecified) + Cc1nc(NC(=O)N2CCCC2C(N)=O)sc1-c1ccnc(C(C)(C)C(F)(F)F)c1
> 10 µM: IC50 (second compound 0.0316 µM) | IC50 (second compound 0.1 µM) | IC50 (second compound 0.316 µM) | IC50 (second compound 1 µM) | IC50 (second compound 3.16 µM) | IC50 (second compound 10 µM)
inactive: viability, T/C [1] 108% | viability, T/C [2] 97% | viability, T/C [3] 121% | viability, T/C [4] 102% | viability, T/C [5] 108% | viability, T/C [6] 100% | viability, T/C [7] 111% | viability, T/C [8] 98.2% | viability, T/C [9] 94.9% | viability, T/C [10] 103% | viability, T/C [11] 116% | viability, T/C [12] 102% | viability, T/C [13] 103% | viability, T/C [14] 102% | viability, T/C [15] 108% | viability, T/C [16] 101% | viability, T/C [17] 112% | viability, T/C [18] 108% | viability, T/C [19] 100% | viability, T/C [20] 97.4% | viability, T/C [21] 114% | viability, T/C [22] 100% | viability, T/C [23] 112% | viability, T/C [24] 107% | viability, T/C [25] 88.9% | viability, T/C [26] 88.2% | viability, T/C [27] 83% | viability, T/C [28] 85.2% | viability, T/C [29] 98.2% | viability, T/C [30] 80.4% | viability, T/C [31] 71.4% | viability, T/C [32] 70.9% | viability, T/C [33] 68.9% | viability, T/C [34] 64.6% | viability, T/C [35] 58.8% | viability, T/C [36] 54.3%

CC(Cn1ccc(-c2ccc(C#N)c(Cl)c2)n1)NC(=O)c1cc(C(C)O)[nH]n1 (stereo unspecified) + CC(Nc1ncnc2nc[nH]c12)c1cc2cccc(Cl)c2c(=O)n1-c1ccccc1
> 10 µM: IC50 (second compound 0.0316 µM) | IC50 (second compound 0.1 µM) | IC50 (second compound 0.316 µM) | IC50 (second compound 1 µM) | IC50 (second compound 3.16 µM) | IC50 (second compound 10 µM)
inactive: viability, T/C [1] 104% | viability, T/C [2] 97% | viability, T/C [3] 98.8% | viability, T/C [4] 99.6% | viability, T/C [5] 105% | viability, T/C [6] 109% | viability, T/C [7] 104% | viability, T/C [8] 102% | viability, T/C [9] 95.3% | viability, T/C [10] 104% | viability, T/C [11] 108% | viability, T/C [12] 97.7% | viability, T/C [13] 103% | viability, T/C [14] 103% | viability, T/C [15] 103% | viability, T/C [16] 104% | viability, T/C [17] 115% | viability, T/C [18] 117% | viability, T/C [19] 102% | viability, T/C [20] 111% | viability, T/C [21] 100% | viability, T/C [22] 115% | viability, T/C [23] 99.6% | viability, T/C [24] 113% | viability, T/C [25] 96.3% | viability, T/C [26] 101% | viability, T/C [27] 112% | viability, T/C [28] 97.1% | viability, T/C [29] 109% | viability, T/C [30] 104% | viability, T/C [31] 93.2% | viability, T/C [32] 99% | viability, T/C [33] 94.2% | viability, T/C [34] 88.2% | viability, T/C [35] 91.8% | viability, T/C [36] 95.6%

CC(C)n1nc(-c2ccc3oc(N)nc3c2)c2c(N)ncnc21 + CC(Nc1ccc2c(c1)OCCn1cc(N3C(=O)OCC3C(F)F)nc1-2)C(N)=O
0.071 µM: IC50 (second compound 0.316 µM)
0.0917 µM: IC50 (second compound 0.0316 µM)
> 0.1 µM: IC50 (second compound 0.00316 µM) | IC50 (second compound 0.01 µM)
0.0811 µM: IC50 (second compound 0.1 µM)
inactive: viability, T/C (second compound 0.00316 µM, first compound 0.000316 µM) 99.7% | viability, T/C (second compound 0.00316 µM, first compound 0.001 µM) 96.8% | viability, T/C (second compound 0.00316 µM, first compound 0.00316 µM) 102% | viability, T/C (second compound 0.00316 µM, first compound 0.01 µM) 101% | viability, T/C (second compound 0.00316 µM, first compound 0.0316 µM) 96.2% | viability, T/C (second compound 0.00316 µM, first compound 0.1 µM) 53.6% | viability, T/C (second compound 0.01 µM, first compound 0.000316 µM) 97.3% | viability, T/C (second compound 0.01 µM, first compound 0.001 µM) 102% | viability, T/C (second compound 0.01 µM, first compound 0.00316 µM) 103% | viability, T/C (second compound 0.01 µM, first compound 0.01 µM) 105% | viability, T/C (second compound 0.01 µM, first compound 0.0316 µM) 93.6% | viability, T/C (second compound 0.01 µM, first compound 0.1 µM) 59.8% | viability, T/C (second compound 0.0316 µM, first compound 0.000316 µM) 105% | viability, T/C (second compound 0.0316 µM, first compound 0.001 µM) 106% | viability, T/C (second compound 0.0316 µM, first compound 0.00316 µM) 98.2% | viability, T/C (second compound 0.0316 µM, first compound 0.01 µM) 99.9% | viability, T/C [1] 93.2% | viability, T/C [2] 46.5% | viability, T/C (second compound 0.1 µM, first compound 0.000316 µM) 99.2% | viability, T/C (second compound 0.1 µM, first compound 0.001 µM) 106% | viability, T/C (second compound 0.1 µM, first compound 0.00316 µM) 101% | viability, T/C (second compound 0.1 µM, first compound 0.01 µM) 96.3% | viability, T/C [7] 84.5% | viability, T/C [8] 42.3% | viability, T/C (second compound 0.316 µM, first compound 0.000316 µM) 92.4% | viability, T/C (second compound 0.316 µM, first compound 0.001 µM) 92.7% | viability, T/C (second compound 0.316 µM, first compound 0.00316 µM) 90.7% | viability, T/C (second compound 0.316 µM, first compound 0.01 µM) 84.9% | viability, T/C [13] 83% | viability, T/C [14] 36.2% | viability, T/C (second compound 1 µM, first compound 0.000316 µM) 85.8% | viability, T/C (second compound 1 µM, first compound 0.001 µM) 86.9% | viability, T/C (second compound 1 µM, first compound 0.00316 µM) 86.5% | viability, T/C (second compound 1 µM, first compound 0.01 µM) 70.5% | viability, T/C [19] 59.5% | viability, T/C [20] 26.2%
0.0422 µM: IC50 (second compound 1 µM)
